Measured values reported in patent publication US10104891B2 (priority 2014, dated 2018).

Experiments:
Plasmopara viticola = assay: Test 3: control effect against grape downy mildew; assay type: in vivo; conditions: Plasmopara viticola, 120 h, control value vs untreated section
Summary of the method: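 Neomuscat grape seedlings were sprayed with compound at 4 ppm, diluted from a 10% wettable powder in Tween20 solution. One day later they were inoculated with Plasmopara viticola zoospores at 1.0×10^4 units/ml and held moist at 22° C. for 16 hr. Control value was derived from leaf lesion area at 5 days versus untreated leaves.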

[1] = tested on: Pseudoperonospora cubensis; assay: Test 2: control effect against cucumber downy mildew; assay type: in vivo; conditions: Pseudoperonospora cubensis, 120 h, control value vs untreated section
Summary of the method: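 Cucumber (Sagami hanjiro) at 2-leaf stage sprayed with 4 ppm compound from 10% wettable powder in Tween20 (1/5000); inoculated next day with P. cubensis zoospores, 1.0×10^4 units/ml, 16 hr moist chamber at 22° C. Lesion area rate scored 5 days post-inoculation; control value = (1 − treated/untreated onset area rate)×100.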

Phytophthora infestans = assay: whole plant or invertebrate; assay type: in vivo; conditions: Phytophthora infestans, in Solanum lycopersicum, 96 h, read-out: control value (Test 1)
Pythium graminicola = assay: Test 4: control effect against rice damping-off by the Pythium fungus (soil lavage); assay type: in vivo; conditions: 1,000 ppm, 2.5 ml test suspension drenched on contaminated soil, rice (koshihikari)
Summary of the method: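 Compound at 1,000 ppm in 1/5000 Tween20 was drenched (2.5 ml) onto Koshihikari rice seeds, 3 pre-sprouted seeds per cell, sown in soil infested with Pythium graminicola (5 g/kg). Regime: 28 °C for 72 h, 5 °C for 2 days, then 25 °C for 14 days. Dead and stunted seedlings were scored into an onset rate, and control value = (1 − treated/untreated) × 100.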

| Structure (SMILES) | pest or weed control at 4 µg/mL (Plasmopara viticola) | pest or weed control at 4 µg/mL [1] | pest or weed control at 4 µg/mL (Phytophthora infestans) | melting point | pest or weed control at 1000 ppm (Pythium graminicola) |
| --- | --- | --- | --- | --- | --- |
| Cc1cc(C(F)(F)F)nn1CC(=O)N1CCC(c2nc(C3OCc4c(F)ccc(OS(C)(=O)=O)c4CO3)cs2)CC1 (stereo not drawn) [Compound 1-8, 4-[4-(6-fluoro-9-methylsulfonyloxy-1,5-dihydro-3H-2,4-benzodioxepin-3-yl)-2-thiazolyl]-1-[2-[5-methyl-3-(trifluoromethyl)-1H-pyrazole-1-yl]acetyl]piperidine] | 100% | 100% | 100% | 151 °C |  |
| Cc1ccc(C)c(CC(=O)N2CCC(c3nc(C4OCc5ccccc5C(C)O4)cs3)CC2)c1 (stereo not drawn) [Compound 2-13, 4-[4-(1-methyl-1,5-dihydro-3H-2,4-benzodioxepin-3-yl)-2-thiazolyl]-1-[2-(2,5-dimethylphenyl)acetyl]piperidine] | 100% | 100% | 50% |  | ≥ 90% |
| Cc1ccc(C)c(CC(=O)N2CCC(c3nc(C4OCc5ccc([N+](=O)[O-])cc5CO4)cs3)CC2)c1 (stereo not drawn) [Compound 2-18, 4-[4-(7-nitro-1,5-dihydro-3H-2,4-benzodioxepin-3-yl)-2-thiazolyl]-1-[2-(2,5-dimethylphenyl)acetyl]piperidine] | 100% | 100% | 100% |  | ≥ 90% |
| O=C(Cc1cc(Cl)ccc1Cl)N1CCC(c2nc(C3OCc4cccc(Br)c4CO3)cs2)CC1 (stereo not drawn) [Compound 2-19, 4-[4-(6-bromo-1,5-dihydro-3H-2,4-benzodioxepin-3-yl)-2-thiazolyl]-1-[2-(2,5-dichlorophenyl)acetyl]piperidine] | 100% | 100% | 100% |  | ≥ 90% |
| COc1ccc(Cl)c2c1COC(c1csc(C3CCN(C(=O)Cc4cc(C)ccc4C)CC3)n1)OC2 (stereo not drawn) [Compound 2-20, 4-[4-(6-chloro-9-methoxy-1,5-dihydro-3H-2,4-benzodioxepin-3-yl)-2-thiazolyl]-1-[2-(2,5-dimethylphenyl)acetyl]piperidine] | 100% | 100% | 100% |  | ≥ 90% |
| O=C(Cc1cc(Cl)ccc1Cl)N1CCC(c2nc(C3OCc4cccc(Cl)c4CO3)cs2)CC1 (stereo not drawn) [Compound 2-22, 4-[4-(6-chloro-1,5-dihydro-3H-2,4-benzodioxepin-3-yl)-2-thiazolyl]-1-[2-(2,5-dichlorophenyl)acetyl]piperidine] | 100% | 100% | 100% |  | ≥ 90% |
| COc1ccc(Cl)c2c1COC(c1csc(C3CCN(C(=O)Cc4cc(Cl)ccc4Cl)CC3)n1)OC2 (stereo not drawn) [Compound 2-23, 4-[4-(6-chloro-9-methoxy-1,5-dihydro-3H-2,4-benzodioxepin-3-yl)-2-thiazolyl]-1-[2-(2,5-dichlorophenyl)acetyl]piperidine] | 100% | 100% | 100% |  | ≥ 90% |
| O=C(Cc1cc(Cl)ccc1Cl)N1CCC(c2nc(C3OCc4c(F)c(F)c(F)c(F)c4CO3)cs2)CC1 [Compound 2-29, 4-[4-(6,7,8,9-tetrafluoro-1,5-dihydro-3H-2,4-benzodioxepin-3-yl)-2-thiazolyl]-1-[2-(2,5-dichlorophenyl)acetyl]piperidine] | 100% | 100% | 100% |  | ≥ 90% |
| Cc1ccc(C)c(CC(=O)N2CCC(c3nc(C4OCc5cccc([N+](=O)[O-])c5CO4)cs3)CC2)c1 (stereo not drawn) [Compound 2-39, 4-[4-(6-nitro-1,5-dihydro-3H-2,4-benzodioxepin-3-yl)-2-thiazolyl]-1-[2-(2,5-dimethylphenyl)acetyl]piperidine] | 100% | 100% | 100% |  | ≥ 90% |
| COc1ccc(C)c2c1COC(c1csc(C3CCN(C(=O)Cc4cc(C)ccc4C)CC3)n1)OC2 (stereo not drawn) [Compound 2-45, 4-[4-(6-methoxy-9-methyl-1,5-dihydro-3H-2,4-benzodioxepin-3-yl)-2-thiazolyl]-1-[2-(2,5-dimethylphenyl)acetyl]piperidine] | 100% | 100% | 90% |  | ≥ 90% |
| O=C(Cc1cc(Cl)ccc1Cl)N1CCC(c2nc(C3OCc4cccc(OC(F)F)c4CO3)cs2)CC1 (stereo not drawn) [Compound 2-48, 4-[4-[6-(difluoromethoxy)-1,5-dihydro-3H-2,4-benzodioxepin-3-yl]-2-thiazolyl]-1-[2-(2,5-dichlorophenyl)acetyl]piperidine] | 100% | 100% | 100% |  | ≥ 90% |
| COc1ccc(F)c2c1COC(c1csc(C3CCN(C(=O)Cc4cc(C)ccc4C)CC3)n1)OC2 (stereo not drawn) [Compound 2-52, 4-[4-(6-fluoro-9-methoxy-1,5-dihydro-3H-2,4-benzodioxepin-3-yl)-2-thiazolyl]-1-[2-(2,5-dimethylphenyl)acetyl]piperidine] | 100% | 100% | 100% |  | ≥ 90% |
| Cc1ccc(C)c(N(C)C(=O)N2CCC(c3nc(C4OCc5c(F)ccc(OS(C)(=O)=O)c5CO4)cs3)CC2)c1 (stereo not drawn) [Compound 2-55, 4-[4-(6-fluoro-9-methylsulfonyloxy-1,5-dihydro-3H-2,4-benzodioxepin-3-yl)-2-thiazolyl]-1-[N-(2,5-dimethylphenyl)-N-methylcarbamoyl]piperidine] | 100% | 100% | 100% |  | ≥ 90% |
| Cc1ccc(C)c(N(C)C(=O)N2CCC(c3nc(C4OCc5cccc(OS(C)(=O)=O)c5CO4)cs3)CC2)c1 (stereo not drawn) [Compound 2-56, 4-[4-(6-methylsulfonyloxy-1,5-dihydro-3H-2,4-benzodioxepin-3-yl)-2-thiazolyl]-1-[N-(2,5-dimethylphenyl)-N-methylcarbamoyl]piperidine] | 70% | 30% | 90% |  | ≥ 90% |
| Cc1ccc(C)c(CC(=S)N2CCC(c3nc(C4OCc5c(F)ccc(OS(C)(=O)=O)c5CO4)cs3)CC2)c1 (stereo not drawn) [Compound 2-57, 4-[4-(6-fluoro-9-methylsulfonyloxy-1,5-dihydro-3H-2,4-benzodioxepin-3-yl)-2-thiazolyl]-1-[2-(2,5-dimethylphenyl)thioacetyl]piperidine] | 100% | 100% | 100% |  | ≥ 90% |
